Source: patent US5100907A, “Hydantoin esters” (Lonza, Inc., priority 1990, dated 1992)

How the values were obtained:
[1] = as formaldehyde donor; cited from earlier work
[2] = test system: Aspergillus niger; assay: Antimicrobial study against Aspergillus niger (mold); type: cell-based; conditions: methylolated C8/10 10,800 ppm, methylolated lauric 11,400 ppm, DMDMH 3,000 ppm, others 14,700 ppm
Procedure: (§1) The antimicrobial properties of typical esters (I) and (Ia) were tested by minimum inhibitory concentration (MIC) tests, along with certain known substances, against […] strains of organisms: a mold, Aspergillus niger; a gram-positive bacteria, Staphylococcus aureus; and two gram-negative bacteria, Escherichia coli and Pseudomonas aeruginosa. […] These tests were used to determine any effect on biocidal activity of the varying chain length of the ester.
(§2) The known substances, on which identical tests were also performed, included the biocide, dimethyloldimethylhydantoin or DMDMH (iv), and a series of three surfactants, i.e., the three common emulsifiers, sodium lauryl sulfate (SLS); ethylene glycol distearate (EGDS), in the form of the commercial product PEGOSPERSE 50 DS (Lonza Inc.); and polyoxyethylene 20 sorbitan monoleate (POE 20 SMO), in the form of the commercial product GLYCOSPERSE 0 20 (Lonza Inc.).
(§3) The tests entailed contaminating a preexisting micro-colony with a known quantity (ppm, concentration) of test material. Each colony was then examined periodically over a one week period. […] A test was deemed non-efficacious when there was no decrease in colony size. In an effort to avoid any possible solvent effect, the micro-study was conducted in a totally aqueous solvent system without use of any other solvent.

[3] = test system: Staphylococcus aureus; assay: Antimicrobial study against Staphylococcus aureus (gram-positive bacteria); type: cell-based; conditions: methylolated C8/10 10,800 ppm, methylolated lauric 11,400 ppm, DMDMH 3,000 ppm, others 14,700 ppm
Procedure: as §1, §2, §3

[4] = test system: Escherichia coli; assay: Antimicrobial study against Escherichia coli (gram-negative bacteria); type: cell-based; conditions: methylolated C8/10 10,800 ppm, methylolated lauric 11,400 ppm, DMDMH 3,000 ppm, others 14,700 ppm
Procedure: as §1, §2, §3

[5] = test system: Pseudomonas aeruginosa; assay: Antimicrobial study against Pseudomonas aeruginosa (gram-negative bacteria); type: cell-based; conditions: methylolated C8/10 10,800 ppm, methylolated lauric 11,400 ppm, DMDMH 3,000 ppm, others 14,700 ppm
Procedure: as §1, §2, §3

CC1(C)C(=O)NC(=O)N1CO [MDMH (iii), 1-hydroxymethyl-5,5-dimethyl-1,3-diazacyclopentane-2,4-dione]
0.2%: minimum inhibitory concentration (MIC) [1]

CC1(C)C(=O)N(CO)C(=O)N1CO [DMDMH (iv), 1,3-dihydroxymethyl-5,5-dimethyl-1,3-diazacyclopentane-2,4-dione, reference compound]
< 0.03 × 1,000: Colony Count ([2]; Day 1)
TNC: Colony Count ([3]; Day 0) | Colony Count ([3]; Day 1) | Colony Count ([3]; Day 2) | Colony Count ([4]; Day 0) | Colony Count ([4]; Day 1) | Colony Count ([4]; Day 2) | Colony Count ([5]; Day 0) | Colony Count ([5]; Day 1)
400 × 1,000: Colony Count ([2]; Day 0)
< 0.01 × 1,000: Colony Count ([2]; Day 2) | Colony Count ([2]; Day 3) | Colony Count ([2]; Day 7) | Colony Count ([3]; Day 3) | Colony Count ([3]; Day 7) | Colony Count ([4]; Day 3) | Colony Count ([4]; Day 7) | Colony Count ([5]; Day 2) | Colony Count ([5]; Day 3) | Colony Count ([5]; Day 7)
0.1%: minimum inhibitory concentration (MIC) [1]
